In patent US20210253562A1, “ACYLSUFONAMIDE COMPOUNDS USEFUL AS EP3 RECEPTOR ANTAGONISTS” (Janssen Pharmaceutica NV, priority 2018, published 2021) one finds Ki and IC50 data, which are given here for 19 compounds.

Experiment [1] deals with T1, EP3 membrane (EP3 receptor) (Homo sapiens, UniProt P43115).
T1 construct: purchased Millipore HTS092M
T1 sequence (P43115 1-390): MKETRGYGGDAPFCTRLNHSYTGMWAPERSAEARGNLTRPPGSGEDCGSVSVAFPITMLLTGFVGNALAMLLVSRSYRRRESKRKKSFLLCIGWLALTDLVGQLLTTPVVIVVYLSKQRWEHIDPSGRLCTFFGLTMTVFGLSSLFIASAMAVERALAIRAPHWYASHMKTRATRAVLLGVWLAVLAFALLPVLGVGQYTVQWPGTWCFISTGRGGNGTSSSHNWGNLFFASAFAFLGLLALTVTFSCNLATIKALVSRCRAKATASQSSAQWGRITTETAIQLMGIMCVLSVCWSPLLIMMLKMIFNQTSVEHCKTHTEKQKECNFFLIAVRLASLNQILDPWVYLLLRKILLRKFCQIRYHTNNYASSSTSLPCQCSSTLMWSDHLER
The experiment is described as follows: [3H]-PGE2 binding; EP3 competition binding (SPA). Summed up: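 Ki derived from one-site nonlinear regression of scintillation proximity counts after 2 h room-temperature equilibration. Serially diluted (1:3) compounds competed against [3H]-PGE2 (2 nM) for EP3 receptor membranes (2 μg/well) in pH 7.4 Tris buffer with 10 mM MgCl2, 1 mM EDTA, 0.1% DMSO.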

For experiment [2], the target named is T2, CHO cells over-expressing the EP3 receptor (Homo sapiens, UniProt P43115).
T2 construct: expressed in transfected cells; host or cells: CHO cells
T2 sequence (P43115 1-390): T1 sequence (P43115 1-390)
The experiment is described as follows: CHO cell cAMP assay; EP3 cAMP antagonist dose response (sulprostone reference), HTRF. It is filed as cell-based. The note with it: sulprostone 700 nM (EC80) and FSK 2 μM (EC70); read-out: CHO_cAMP IC50. The protocol: Biological Example 2: CHO Cell cAMP Assay
This assay monitored the cAMP generation in CHO cells over-expressing the EP3 receptor in the presence or absence of antagonist stimulated with Forskolin (FSK, CAS No. 66428-89-5) and a known EP3 Agonist (sulprostone, CAS No. 60325-46-4). For detection, a homogeneous competitive immunoassay (Time Resolved Fluorescence Energy Transfer (hTR-FRET)) was used.
Cells (6K cells per well) were plated in Poly-D-Lysine coated plates the day before the assay was to be run and were incubated at 37° C. One hour before the assay the media was removed and replaced with assay buffer (500 mL HBSS (+Ca)+2.5 mL 1M HEPES+6.66 mL 7.5% BSA) (starved at 37° C.). At the start of the assay the buffer was removed from the cells and replaced with buffer containing test compound(s). Sulprostone at an EC80 dose (700 nM) and FSK at an EC70 dose (2 μM) were added to initiate the reaction (37° C. for 30 minutes).
FSK increases cAMP production and sulprostone decreases cAMP production produced by FSK. In this assay, EP3 antagonists will increase the cAMP to the level of cAMP generated by FSK alone.
The reaction was terminated with the addition of cAMP detection reagents (labeled cAMP and labeled cAMP antibody in lysis buffer (HTRF reagent, which utilizes a cryptate-labeled anti-cAMP and d2-labeled cAMP-d2 is an HTRF acceptor fluorophore)). Approximately one hour later the plates were read on an Envision (Perkin Elmer) in HTRF mode. Well results were calculated based on a ratio of counts at 665 nm and 615 nm (data output was a calculation of the ratio: (read @665 nm/read @ 615 nm)*1000. For test compounds dosed serially, well results were converted to nM cAMP using a cAMP standard run on each plate. nM cAMP from a set of wells dosed with test compound(s) were plotted. nM cAMP was calculated for each well from a standard curve located on each plate (P1-12 and P13-24) by first calculating the slope and deriving the intercept(b):
[formula] NScAMP_s tan dard_cruve=m(nM cAMP_s tan dard_curve)+b
NSP, NSN, NSsample were converted to nM cAMP using the following equation: […]
IC50 values were determined from a […] (Hill equation) of a single 11-point compound dosing. A best-fit curve was determined by the minimum sum of squares method plotting cAMP produced vs compound concentration.

By Ki is commonly meant a dissociation constant, usually derived from enzyme kinetics or from competition with a known ligand. High values mean lower affinity, low ones higher affinity. One may read the IC50 as the midpoint of a concentration-inhibition curve. `O=C(C/C=C1\CCCc2cnn(Cc3ccc(Cl)cc3Cl)c21)NS(=O)(=O)c1cc2ccccc2o1` [Compound #26, (E)-N-(benzofuran-2-ylsulfonyl)-3-(1-(2,4-dichlorobenzyl)-1,4,5,6-tetrahydro-7H-indazol-7-ylidene)propenamide] yielded a Ki in experiment [1] of 85 nM. Also, the IC50 in experiment [2] is 699 nM.
For `COc1ccc(S(=O)(=O)NC(=O)CC/C=C2\CCCc3cnn(Cc4ccc(Cl)cc4Cl)c32)cc1` [Compound #30, (E)-4-(1-(2,4-dichlorobenzyl)-1,4,5,6-tetrahydro-7H-indazol-7-ylidene)-N-((4-methoxyphenyl)sulfonyl)butanamide] the same measures were 26 nM and 35 nM.
On to `O=C(NC/C(F)=C1/CCc2cnn(-c3ccc(C(F)(F)F)cc3)c21)NS(=O)(=O)c1cc(Cl)c(Cl)s1` [Compound #137, (E)-4,5-dichloro-N-((2-fluoro-2-(1-(4-(trifluoromethyl)phenyl)-4,5-dihydrocyclopenta[c]pyrazol-6(1H)-ylidene)ethyl)carbamoyl)thiophene-2-sulfonamide], for which the Ki in experiment [1] came out at 220 nM. The IC50 in experiment [2] was found to be 488 nM.
Turning to `O=C(NS(=O)(=O)c1ccc(Cl)cc1)OC/C=C1\c2c(cnn2Cc2ccc(Cl)cc2Cl)CCC1(F)F` [Compound #81, (E)-2-(1-(2,4-dichlorobenzyl)-6,6-difluoro-1,4,5,6-tetrahydro-7H-indazol-7-ylidene)ethyl ((4-chlorophenyl)sulfonyl)carbamate], the Ki in experiment [1] was more than 10000 nM. Moreover, in experiment [2], the IC50 turned out to be 14100 nM.
In experiment [1], `O=C(NC/C(F)=C1/CCCc2onc(-c3ccc(Cl)cc3)c21)NS(=O)(=O)c1ccc(Cl)cc1` [Compound #96, (E)-4-chloro-N-((2-(3-(4-chlorophenyl)-6,7-dihydrobenzo[d]isoxazol-4(5H)-ylidene)-2-fluoroethyl)carbamoyl)benzenesulfonamide] showed a Ki of more than 10000 nM. In addition, in experiment [2], the IC50 was more than 20000 nM.
For `O=C(NC/C(F)=C1/c2c(cnn2Cc2ccc(Cl)cc2Cl)CCC1F)NS(=O)(=O)c1cc(Cl)c(Cl)s1` (centres unmarked) [Compound #100, (E)-4,5-dichloro-N-((2-(1-(2,4-dichlorobenzyl)-6-fluoro-1,4,5,6-tetrahydro-7H-indazol-7-ylidene)-2-fluoroethyl)carbamoyl)thiophene-2-sulfonamide] the same measures were 3 nM and 7 nM.
For `COc1ccc(Cl)cc1S(=O)(=O)NC(=O)NC/C(F)=C1\CCCc2cnn(Cc3ccc(Cl)cc3Cl)c21` [Compound #89, (Z)-5-chloro-N-((2-(1-(2,4-dichlorobenzyl)-1,4,5,6-tetrahydro-7H-indazol-7-ylidene)-2-fluoroethyl)carbamoyl)-2-methoxybenzenesulfonamide] the same measures were 26 nM and 160 nM.
For `O=C(NC/C(F)=C1\CCCc2cnn(Cc3ccc(Cl)cc3Cl)c21)NS(=O)(=O)c1cccc(Cl)c1` [Compound #91, (Z)-3-chloro-N-((2-(1-(2,4-dichlorobenzyl)-1,4,5,6-tetrahydro-7H-indazol-7-ylidene)-2-fluoroethyl)carbamoyl)benzenesulfonamide] the same measures were 18 nM and 34 nM.
Compound `CN(C/C=C1\CCCc2cnn(Cc3ccc(Cl)cc3Cl)c21)C(=O)NS(=O)(=O)c1ccc(Cl)cc1` [Compound #33, (E)-4-chloro-N-((2-(1-(2,4-dichlorobenzyl)-1,4,5,6-tetrahydro-7H-indazol-7-ylidene)ethyl)(methyl)carbamoyl)benzenesulfonamide] gave a Ki in experiment [1] of 6 nM. Moreover, the IC50 in experiment [2] worked out at 9 nM.
On the same counts, the results for `O=C(NC/C=C1\CCCc2cnn(Cc3ccc(Cl)cc3Cl)c21)NS(=O)(=O)c1cnc2ccccc2c1` [Compound #12, (E)-N-((2-(1-(2,4-dichlorobenzyl)-1,4,5,6-tetrahydro-7H-indazol-7-ylidene)ethyl)carbamoyl)quinoline-3-sulfonamide] are 19 nM and 48 nM.
On the same counts, the results for `O=C(NC/C(F)=C1\CCCc2cnn(-c3ccc4ccccc4c3)c21)NS(=O)(=O)c1ccc2c(c1)OCCO2` [Compound #114, (Z)—N-((2-fluoro-2-(1-(naphthalen-2-yl)-1,4,5,6-tetrahydro-7H-indazol-7-ylidene)ethyl)carbamoyl)-2,3-dihydrobenzo[b][1,4]dioxine-6-sulfonamide] are 14500 nM and more than 20000 nM.
For `O=C(CC/C=C1\CCCc2cnn(Cc3ccc(Cl)cc3Cl)c21)NS(=O)(=O)c1ccc(Cl)s1` [Compound #29, (E)-N-((5-chlorothiophen-2-yl)sulfonyl)-4-(1-(2,4-dichlorobenzyl)-1,4,5,6-tetrahydro-7H-indazol-7-ylidene)butanamide] the same measures were 1 nM and 2 nM.
As to `COc1ccc(F)cc1S(=O)(=O)NC(=O)NC/C(F)=C1\CCCc2cnn(Cc3ccc(Cl)cc3Cl)c21` [Compound #90, (Z)—N-((2-(1-(2,4-dichlorobenzyl)-1,4,5,6-tetrahydro-7H-indazol-7-ylidene)-2-fluoroethyl)carbamoyl)-5-fluoro-2-methoxybenzenesulfonamide], the Ki in experiment [1] came to 37 nM. Moreover, the IC50 in experiment [2] stood at 272 nM.
For `O=C(NC/C(F)=C1\CCc2cnn(-c3ccc(C(F)(F)F)cc3)c21)NS(=O)(=O)c1cc(Cl)c(Cl)s1` [Compound #130, (Z)-4,5-dichloro-N-((2-fluoro-2-(1-(4-(trifluoromethyl)phenyl)-4,5-dihydrocyclopenta[c]pyrazol-6(1H)-ylidene)ethyl)carbamoyl)thiophene-2-sulfonamide] the same measures were 40 nM and 182 nM.
In experiment [1], `COc1ccc(F)c(S(=O)(=O)NC(=O)NC/C=C2\COCc3cnn(Cc4ccc(Cl)cc4Cl)c32)c1` [Compound #68, (Z)—N-((2-(1-(2,4-dichlorobenzyl)-1,4-dihydropyrano[4,3-c]pyrazol-7(6H)-ylidene)ethyl)carbamoyl)-2-fluoro-5-methoxybenzenesulfonamide] had a Ki of 27 nM. Also, the IC50 in experiment [2] amounted to 32 nM.
On the same counts, the results for `COc1ccc(Cl)cc1S(=O)(=O)NC(=O)CC/C=C1\CCCc2cnn(Cc3ccc(Cl)cc3Cl)c21` [Compound #38, (E)-N-((5-chloro-2-methoxyphenyl)sulfonyl)-4-(1-(2,4-dichlorobenzyl)-1,4,5,6-tetrahydro-7H-indazol-7-ylidene)butanamide] are 3 nM and 7 nM.
For `O=C(NC/C(F)=C1\CCCc2cnn(Cc3ccc(C(F)(F)F)cc3)c21)NS(=O)(=O)c1cc2ccccc2o1` [Compound #132, (Z)—N-((2-fluoro-2-(1-(4-(trifluoromethyl)benzyl)-1,4,5,6-tetrahydro-7H-indazol-7-ylidene)ethyl)carbamoyl)benzofuran-2-sulfonamide] the same measures were 350 nM and 3900 nM.
`O=C(NC/C(F)=C1\CCCc2cnn(-c3ccc(C(F)(F)F)cc3)c21)NS(=O)(=O)c1ccc(Cl)s1` [Compound #124, (Z)-5-chloro-N-((2-fluoro-2-(1-(4-(trifluoromethyl)phenyl)-1,4,5,6-tetrahydro-7H-indazol-7-ylidene)ethyl)carbamoyl)thiophene-2-sulfonamide] returned a Ki in experiment [1] of 100 nM. Further, the IC50 in experiment [2] came out at 798 nM.
For `O=C(NS(=O)(=O)c1cc(Cl)c(Cl)s1)OC/C(F)=C1/CCCc2cnn(Cc3ccc(Cl)cc3Cl)c21` [Compound #35, (E)-2-(1-(2,4-dichlorobenzyl)-1,4,5,6-tetrahydro-7H-indazol-7-ylidene)-2-fluoroethyl ((4,5-dichlorothiophen-2-yl)sulfonyl)carbamate] the same measures were 542 nM and 2800 nM.
